Experimental data taken from patent US20110312961A1, “2,5-Disubstituted Morpholine Orexin REceptor Antagonists” (priority 2008, published 2011).
Where two headings read alike, the source gives them in different places.

How the values were obtained:
[1] = molecular target: α7 nicotinic ACh receptors (Homo sapiens, UniProt P36544); experiment: Electrophysiology at α7, dose-response and co-application with ACh (Dynaflow chip); assay type: cell-based
Protocol: Hump currents are defined as the tail current observed during co-application with endogenous ACh following agonist removal.
The channels were prepared as follows: Control solution (channel #2), application ligand itself (channel #3), application of acetylcholine itself (channel #1), and application of mixture of acetylcholine and ligand (channel #4).
Curve 1, FIG. 7B: The bar above the curve indicates time of ACh application. The curve represents current induced by a one second application of 70 μM ACh. The curve illustrates the result from moving the cell from channel #2 to channel #1 for a 1 second application of ACh and back to channel 2 (washout).
Curve 4, FIG. 7B: Curve 4 represents a repetition of Curve 1 at the end of measurements after application of the ligand and ACh/ligand mixture (recovery).
Curve 2, FIG. 7B: The down/up arrows indicates time of application.

CD-1 mice = experiment: Formalin test; assay type: in vivo, mouse
Protocol: One of the most clinically predictive screening models of acute pain is the formalin test in mice (LeBars et al., 2001). In this paradigm, originally described by Dubuisson and Dennis (1977), a diluted solution of formalin is injected into the plantar surface of a subject's (rat or mouse) rear paw and nociceptive behavior is measured; for instance, licking and biting of the injected paw. Two phases of the response are observed. First an early phase, starting immediately after injection and lasting 5-10 minutes, followed by a late phase that can last from 15-60 minutes after injection. Nociceptive response is attributed to direct chemical stimulation in the early phase and inflammation/persistent pain in the later phase (Dubuisson and Dennis, 1977). The response in the late phase also depends on changes in processing of information in the spinal cord due to the afferent barrage during the early phase (Coderre et al., 1990). An advantage of the test is that two different types of stimuli are employed in the same assay to study the possibility of varying analgesic effects of a drug in the two phases of the test (Tjølsen and Hole, 1997).
Subjects (adult male CD-1 mice (Charles River, Raleigh, N.C.) weighing approximately 20-25 grams) were removed from their home cage and weighed, then placed in a clear Plexiglas™ observation box for an acclimation period of 20-30 minutes. Mice were then removed from the observation chambers and (2S,3R)—N-2-((3-pyridinyl)methyl)-1-azabicyclo[2.2.2]oct-3-yl)-3,5-difluorobenzamide (as the hydrochloride salt in 0.9% saline) (1, 3 or 10 mg/kg s.c. (calculated with respect to the free base)), morphine (5 mg/kg; s.c.) or 0.9% saline vehicle was administered subcutaneously in a volume of 1 mL/kg. Mice were then returned to the chamber for the predetermined pretreatment time of 30 minutes for (2S,3R)—N-2-((3-pyridinyl)methyl)-1-azabicyclo[2.2.2]oct-3-yl)-3,5-difluorobenzamide and morphine.
After the test compound pretreatment time, the animals were injected with formalin solution (2.5% derived as a 1:4 dilution of 10% phosphate buffered formalin solution (Sigma):distilled water). The subject's assigned paw was gasped gently and formalin solution was injected into the paw intra-dermally in the middle on the dorsal side. Once injected, the subject was immediately returned to its observation chamber and a timer was started to mark the beginning of Phase I. Each subject was videotaped for the entire 40-minute session. […] The time spent licking during that 1 min interval was recorded, and the presence or absence of paw favoring was noted.
For data analyses, phase I of the test was defined as 0 to 5 minutes after formalin injection, and phase II was defined as 20 to 40 minutes after formalin injection. The time spent licking during the 1 minute intervals during those time frames was recorded and graphed as mean±S.E.M. For comparisons across treatment groups, 1-way analyses of variance (ANOVAs) were performed for each phase of the session with treatment as the […] variable. Post-hoc analyses were performed when appropriate to determine specific group differences.

[2] = tested on: ovalbumin-sensitized mice; experiment: Airway hyperresponsiveness (Penh) and BALF cell counts; assay type: in vivo, mouse; conditions: for methacholine-induced increase in Penh values: FIG. 21
Protocol: Using the method of Hamelmann et al, (2S,3R)—N-2-((3-pyridinyl)methyl)-1-azabicyclo[2.2.2]oct-3-yl)-3,5-difluorobenzamide was evaluated for possible inhibition of airway hyper-responsiveness in mice. Briefly, ovalbumin (OVA)-sensitized animals, 12 animals per group, were challenged by nasal inhalation with aerosolized 5% OVA for 25 min on days 21, 23, and 25. The mice were treated with vehicle or (2S,3R)—N-2-((3-pyridinyl)methyl)-1-azabicyclo[2.2.2]oct-3-yl)-3,5-difluorobenzamide subcutaneously (s.c.) twice daily from day 21 to day 26 or once daily intratracheally (i.t.), preceding ovalbumin aerosol challenge by 30 min on days 21, 23 and 25 as well as methacholine challenge or bronchoalveolar lavage fluids (BALF) harvest on day 26. Dexamethasone, the reference standard, was administered at 3 mg/kg orally (p.o.) once daily 60 min before OVA challenge on day 21, 23 and 25 and 60 min before methacholine provocation or BALF harvest on day 26. Noninvasive measurements of airway responsiveness were performed by using whole body plethysmography, in which increases in enhanced pause (Penh) serve as an index of airway obstruction. Responses to inhaled methacholine were measured and calculated as percentage of respective baseline values. Unpaired Students t-test was used for comparison between the vehicle control and the sham group; one-way ANOVA and Dunnett's post-hoc analyses were applied for comparison between the vehicle control and treated groups. Statistical significance is considered at P<0.05.

Chain of α7 nicotinic ACh receptors (P36544 23-502): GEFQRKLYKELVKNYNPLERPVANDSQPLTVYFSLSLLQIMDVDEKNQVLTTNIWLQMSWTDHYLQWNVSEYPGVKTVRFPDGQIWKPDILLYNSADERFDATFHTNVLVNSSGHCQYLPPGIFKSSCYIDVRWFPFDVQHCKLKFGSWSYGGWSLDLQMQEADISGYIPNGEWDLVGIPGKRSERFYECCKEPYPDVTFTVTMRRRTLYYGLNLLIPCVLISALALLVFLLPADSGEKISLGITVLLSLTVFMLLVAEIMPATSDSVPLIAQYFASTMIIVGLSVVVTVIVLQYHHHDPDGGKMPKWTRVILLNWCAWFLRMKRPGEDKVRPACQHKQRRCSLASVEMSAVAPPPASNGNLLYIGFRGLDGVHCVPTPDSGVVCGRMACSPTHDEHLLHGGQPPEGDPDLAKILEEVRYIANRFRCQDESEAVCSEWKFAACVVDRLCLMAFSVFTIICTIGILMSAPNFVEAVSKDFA

For `O=C(N[C@@H]1C2CCN(CC2)[C@H]1Cc1cccnc1)c1cc(F)cc(F)c1` [Compound A], the “type of activity at the α7 NNR” value [1] was “partial agonists”, the “current on application of the ligand following application of ACh” value ([1]; 200 nM ligand, Curve 3 FIG. 7B) was “profound “hump” current” and the “current on application of the ligand alone” value ([1]; 200 nM, 5 second application, Curve 2 FIG. 7B) was “do not produce robust macro currents”. The “effect on ACh-induced current” value ([1]; co-application of compound with ACh, FIG. 6) was “enhances ACh-induced current”, the EC50 ([1]; co-application with ACh, 100-500 nM range, n=4, FIG. 7C, read-out: EC50 of hump current) was 120 nM and the “concentration at Emax of hump current” value ([1]; co-application with ACh, FIG. 7C) was “approximately 500 nM”. The Emax ([1]; dose-response, FIG. 5) was 54.4%, the EC50 ([1]; dose-response, FIG. 5, read-out: EC50 at α7 nicotinic receptors) was 1600 nM and the “reduction of time spent licking the paw, phase II” value (CD-1 mice; 10 mg/kg s.c., 20 to 40 minutes after formalin, P<0.05) was “significant in reducing the time spent licking the paw”. The “reduction of time spent licking, phase I” value (CD-1 mice; 1, 3 or 10 mg/kg s.c., hydrochloride salt, 0 to 5 minutes after formalin) was “no statistically significant dose”, the “reduction of time spent licking the affected paw, phase I or phase II” value (CD-1 mice; subsequent analysis of the videotapes, scored across the entire time period) was “failed to achieve statistical significance” and the “methacholine-induced increase in Penh values” ([2]; 10 mg/kg IT qd) was “significant inhibition”. The “monocytes in BALF” value ([2]; 10 mg/kg SC) was “reduced”, the “methacholine-induced increase in Penh values” ([2]; 0.1, 1, and 10 mg/kg bid s.c.) was “significant inhibition” and the airway hyper-responsiveness ([2]; 0.1, 1 and 10 mg/kg bid s.c. and 10 mg/kg i.t., multiple administrations) was “significant protection against airway hyper-responsiveness”. The “total WBC and eosinophils in BALF” value ([2]; 0.1 and 1 mg/kg SC) was “significantly reduced”, the “lymphocytes in BALF” value ([2]; 0.1 and 1 mg/kg SC as well as 10 mg/kg IT) was “reduced” and the “eosinophils and white blood cells in BALF” value ([2]; multiple administrations, lacks a consistent dose-response relationship) was “significant reduction”.
